Experiments:
S. aureus SG 511 [1] = test: In vivo activity against S. aureus SG 511 infection in mice; details: S. aureus SG 511, 1.75 × 10^9 CFU/mouse
Experimental: On subcutaneous administration in a dose of 9.37 and 25.00 mg/kg to laboratory mice infected experimentally with Staphylococcus aureus SG 511 and S. aureus 710 (resistant to methicillin), […].
In vivo activity of mersacidin against S. aureus SG 511
infection in mice compared with vancomycin.
Inoculation medium used: 1.75 × 10^9 CFU/mouse

S. aureus SG 511 [2] = test: In vivo activity against S. aureus SG 511 abscess in rats; details: infecting dose 2 × 10^-9 CFU in 5% mucin under the skin, 50 mg/kg × 7 days
Experimental: In vivo activity of mersacidin against S. aureus SG 511 abscess in rats, compared with vancomycin.
Infecting dose : […] in 5% mucin, injected under the skin.
Treatment: 50 mg/kg × 7 days

S. aureus E 710 (MRSA) = test: In vivo activity against S. aureus E 710 (MRSA) in mice; details: S. aureus E 710 (MRSA), 5 × 10^9 CFU/mouse (1 MLD)
Experimental: On subcutaneous administration in a dose of 9.37 and 25.00 mg/kg to laboratory mice infected experimentally with Staphylococcus aureus SG 511 and S. aureus 710 (resistant to methicillin), […]. […]

S. aureus SG 511 [3] = test: In vivo activity against S. aureus SG 511 infection in mice; details: mice, S. aureus SG 511, 1.75 × 10^9 CFU/mouse

## CN[C@H](CC(C)C)C(=O)N[C@H]1C(=O)N[C@@H](CC(N)=O)C(=O)N[C@H]2C(=O)N[C@H]3C(=O)N[C@H](C(=O)N[C@H](C(=O)O)c4cc(O)cc(O)c4-c4cc3ccc4O)[C@H](O)c3ccc(c(Cl)c3)Oc3cc2cc(c3O[C@@H]2O[C@H](CO)[C@@H](O)[C@H](O)[C@H]2O[C@H]2C[C@](C)(N)[C@H](O)[C@H](C)O2)Oc2ccc(cc2Cl)[C@H]1O [Vancomycin, reference compound]
S. aureus SG 511 [1]; 9.37 mg/kg × 3, s.c.
  Number of mice treated/cured: 48/53
  percentage rate of cure: 85%
S. aureus SG 511 [1]; s.c.
  Approx. ED50: ~7.20 mg/kg × 3
  Approx. ED90: ~9.37 mg/kg × 3
S. aureus SG 511 [2]
  reduces bacterial counts by: 0.79 log10 CFU/ml
S. aureus E 710 (MRSA); 6.25 mg/kg × 3, s.c.
  Number of mice treated/cured: 0/11
  percentage rate of cure: 0%
S. aureus E 710 (MRSA); 12.50 mg/kg × 3, s.c.
  Number of mice treated/cured: 3/11
  percentage rate of cure: 27%
S. aureus E 710 (MRSA); 25.00 mg/kg × 3, s.c.
  Number of mice treated/cured: 14/21
  percentage rate of cure: 67%
S. aureus E 710 (MRSA); 37.00 mg/kg × 3, s.c.
  Number of mice treated/cured: 6/6
  percentage rate of cure: 100%
S. aureus E 710 (MRSA); s.c.
  Approx. ED50: ~18.94 mg/kg × 3
  Approx. ED90: ~32.01 mg/kg × 3
S. aureus SG 511 [3]; 3.12 mg/kg × 3, s.c.
  Number of mice treated/cured: 2/41
  percentage rate of cure: 5%
S. aureus SG 511 [3]; 6.25 mg/kg × 3, s.c.
  Number of mice treated/cured: 13/44
  percentage rate of cure: 29%
S. aureus SG 511 [3]; 12.5 mg/kg × 3, s.c.
  Number of mice treated/cured: 59/61
  percentage rate of cure: 97%
S. aureus SG 511 [3]; 18.75 mg/kg × 3, s.c.
  Number of mice treated/cured: 71/71
  percentage rate of cure: 100%

From patent publication US5112806A, “Antibiotic, mersacidin, a process for the preparation thereof and the use thereof as a pharmaceutical” (Hoechst Aktiengesellschaft, priority 1988, dated 1992)
